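1) Cells in 96-well plates. 2) Compound, 48 h, 5 concentrations. 3) Linear interpolation between surrounding doses. 4) Unreached endpoint = highest concentration. At the TGI there is no net growth.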
Experiments:
Test in all cases: inhibition of tumour cell growth, NCI panel, 48 h
HOP-18 NSCLC = test system: HOP-18 NSCLC
HOP-62 NSCLC = test system: HOP-62 NSCLC
IGROV1 ovarian = test system: IGROV1 ovarian
MALME-3M melanoma = test system: MALME-3M melanoma
K-562 leukemia = test system: K-562 leukemia
OVCAR-8 ovarian = test system: OVCAR-8 ovarian
ACHN renal = test system: ACHN renal
SR leukemia = test system: SR leukemia
KM12 colon = test system: KM12 colon
NCI-H522 lung = test system: NCI-H522 lung
LOX IMVI melanoma = test system: LOX IMVI melanoma
HCT-116 colon = test system: HCT-116 colon
SF-295 CNS = test system: SF-295 CNS
RPMI-8226 leukemia = test system: RPMI-8226 leukemia
LXFL 529 NSCLC = test system: LXFL 529 NSCLC
COLO 205 colon = test system: COLO 205 colon
CCRF-CEM leukemia = test system: CCRF-CEM leukemia
HCT-15 colon = test system: HCT-15 colon
SK-MEL-28 melanoma = test system: SK-MEL-28 melanoma
HOP-92 NSCLC = test system: HOP-92 NSCLC
RXF-631 renal = test system: RXF-631 renal
UO-31 renal = test system: UO-31 renal
SF-268 CNS = test system: SF-268 CNS
CAKI-1 renal = test system: CAKI-1 renal
EKVX NSCLC = test system: EKVX NSCLC
XF 498 CNS = test system: XF 498 CNS
OVCAR-4 ovarian = test system: OVCAR-4 ovarian
KM20L2 colon = test system: KM20L2 colon
OVCAR-5 ovarian = test system: OVCAR-5 ovarian
A549 NSCLC = test system: A549 NSCLC
SK-MEL-2 melanoma = test system: SK-MEL-2 melanoma
SN12C renal = test system: SN12C renal
HCC-2998 colon = test system: HCC-2998 colon
NCI-H226 lung = test system: NCI-H226 lung
SK-MEL-5 melanoma = test system: SK-MEL-5 melanoma
SK-OV-3 ovarian = test system: SK-OV-3 ovarian
SW-620 colon = test system: SW-620 colon
NCI-H460 lung = test system: NCI-H460 lung
HL-60(TB) leukemia = test system: HL-60(TB) leukemia
SF-539 CNS = test system: SF-539 CNS
A498 renal = test system: A498 renal
OVCAR-3 ovarian = test system: OVCAR-3 ovarian
UACC-257 melanoma = test system: UACC-257 melanoma
RXF 393 renal = test system: RXF 393 renal
DLD-1 colon = test system: DLD-1 colon
SNB-78 CNS = test system: SNB-78 CNS
HT29 colon = test system: HT29 colon
U251 CNS = test system: U251 CNS
UACC-62 melanoma = test system: UACC-62 melanoma
SNB-19 CNS = test system: SNB-19 CNS
MOLT-4 leukemia = test system: MOLT-4 leukemia
DMS 273 small cell lung = test system: DMS 273 small cell lung
NCI-H23 lung = test system: NCI-H23 lung
DMS 114 small cell lung = test system: DMS 114 small cell lung
TK-10 renal = test system: TK-10 renal
M19-MEL melanoma = test system: M19-MEL melanoma
M14 melanoma = test system: M14 melanoma
SNB-75 CNS = test system: SNB-75 CNS

Measured: TGI

CC(=O)Nc1ccc(C2=N/C(=C\c3ccc(Cl)c(Cl)c3)C(=O)O2)cc1
> 100 µM: HOP-18 NSCLC | HOP-62 NSCLC | IGROV1 ovarian | MALME-3M melanoma | K-562 leukemia | OVCAR-8 ovarian | ACHN renal | SR leukemia | KM12 colon | NCI-H522 lung | LOX IMVI melanoma | HCT-116 colon | SF-295 CNS | RPMI-8226 leukemia | LXFL 529 NSCLC | COLO 205 colon | CCRF-CEM leukemia | HCT-15 colon | SK-MEL-28 melanoma | HOP-92 NSCLC | RXF-631 renal | UO-31 renal | SF-268 CNS | CAKI-1 renal | EKVX NSCLC | XF 498 CNS | OVCAR-4 ovarian | KM20L2 colon | OVCAR-5 ovarian | A549 NSCLC | SK-MEL-2 melanoma | SN12C renal | HCC-2998 colon | NCI-H226 lung | SK-MEL-5 melanoma | SK-OV-3 ovarian | SW-620 colon | NCI-H460 lung | HL-60(TB) leukemia | SF-539 CNS | A498 renal | OVCAR-3 ovarian | UACC-257 melanoma | RXF 393 renal | DLD-1 colon | SNB-78 CNS | HT29 colon | U251 CNS | UACC-62 melanoma | SNB-19 CNS | MOLT-4 leukemia | DMS 273 small cell lung | NCI-H23 lung | DMS 114 small cell lung | TK-10 renal | M19-MEL melanoma | M14 melanoma | SNB-75 CNS
